These results are taken from patent publication US10011562B2, “Long-chain dimethylaniline derivative compounds, their preparation methods, self-assembled textures, and uses thereof” (WEST CHINA HOSPITAL, SICHUAN UNIVERSITY, priority 2014, dated 2018).

Molecules are shown by their SMILES. Counter-ions that a name gives are not always drawn.

Experiment [1] deals with sciatic nerve of rats. Description: First local anesthetic experiment of rats: blocking of sciatic nerve, mechanical withdrawal threshold (VFH, von Frey filaments). It is filed as in vivo. On the procedure:
(§1) Selected above micelle, positive control lidocaine, and negative control normal saline were respectively administrated to 28 groups of test rats fully adapted to experiment environment, with five rats for each group. The administration dosage is: the concentration of lidocaine group being 2% aqueous solution (84 mmol/L), and the concentration of tested drug being 5 mmol/L. The injection volume of each rat receiving drugs or the control was 0.2 ml, and the drug or the control was injected to close to sciatic nerve of rats by guidance of nerve locator.
(§2) The tested rats were placed on bench board and allowed to inhale 5% isoflurane. After body-righting reflex abolition, rats are allowed to continue inhaling 1.5% isoflurane, to keep anesthesia. Keeping left-lateral position, their corresponding injection area sacrococygeal region was shaved, then routine sterilization and draping were performed. Two osseous anatomic landmarks greater trochanter of femur and tuber is chiadicum were laid hands, and the middle point of this line was the needle insertion position. If skin was taut, 1 ml injector was inserted along perpendicular of skin. When needlepoint reached hucklebone, the insertion was finished. […] Needle was lifted, and is oflurane was shut off. Animals were placed in observation cage until they naturally awakened.
(§3) Rats were placed in transparent observation cages with a bottom of smooth metal sieve plate, and the corrected von frey filament was used to stimulate the foot lateral skin of rats (innervated region of sciatic nerve) from down to up. […] For each stimulation, slightly bent of filament was used as a standard, or rats moved aside this side of limbs. Otherwise, once the stimulation time reached 3 s, operator stopped stimulating. Three tests were carried out for each time point, and the interval between two tests was 5 min, to avoid sensibilization.
(§4) If the mechanical withdrawal threshold value was more than 60 g, the nerve blocking was considered as effective.

The test system of experiment [2] is sciatic nerve of rats. Description: First local anesthetic experiment of rats: blocking of sciatic nerve, motor function by hindlimb postural extensor thrust (PET). The experiment is classed as in vivo. On the procedure: as §1, §2
(§5) The hindlimb postural extensor thrust (PET) was used for evaluation. Rats were lifted vertically and their hindlimbs of injection side stepped on the top of electronic balance. At this time, the postural extensor thrust was shown as the value of balance. When limbs were completely paralytic, the digital reading was the weight of limbs, about 20 g. If the test value was more than half of the difference between the baseline and the limbs weight, the motor function was taken as recovery; If less than or equal to half of the difference, the motor function was taken as deprivation.
(§6) The interval between completion of injection and the time point that the motor function was firstly deprivated was the time of effective motor blocking; the interval between completion of injection and the time point that the motor function was firstly recovered was the time of ineffective motor blocking; their difference was the hold time of motor blocking.

In experiment [3] the test system is sciatic nerve of rats. Nature of the experiment: Second local anesthetic experiment of rats: blocking of sciatic nerve, mechanical withdrawal threshold (VFH). The experiment is classed as in vivo. The settings on record: 0.2 ml of formulated solution injected close to sciatic nerve, lidocaine 2% (84 mmol/L). On the procedure: (§7) The tested rats were placed on bench board and allowed to inhale 5% isoflurane. After body-righting reflex abolition, rats are allowed to continue inhaling 1.5% isoflurane, to keep anesthesia. Keeping left-lateral position, their corresponding injection area sacrococygeal region was shaved, then routine sterilization and draping were performed. Two osseous anatomic landmarks greater trochanter of femur and tuber is chiadicum were laid hands, and the middle point of this line was the needle insertion position. If skin was taut, 1 ml injector was inserted along perpendicular of skin. When needlepoint reached hucklebone, the insertion was finished. Once no blood return was found as suction, 0.2 ml drug solution was slowly injected. Needle was lifted, and is oflurane was shut off. Animals were placed in observation cage until they naturally awakened.
Rats were placed in transparent observation cages with a bottom of smooth metal sieve plate, and the corrected von frey filament was used to stimulate the foot lateral skin of rats (innervated region of sciatic nerve) from down to up. […] For each stimulation, slightly bent of filament was used as a standard, or rats moved aside this side of limbs. Otherwise, once the stimulation time reached 3 s, operator stopped stimulating. Three tests were carried out for each time point, and the interval between two tests was 5 min, to avoid sensibilization. […]

For experiment [4], the system named is sciatic nerve of rats. Nature of the experiment: Second local anesthetic experiment of rats: blocking of sciatic nerve, motor function (PET). The settings on record: 0.2 ml of formulated solution injected close to sciatic nerve, lidocaine 2% (84 mmol/L). The experiment is classed as in vivo. On the procedure:
as §7
The hindlimb postural extensor thrust (PET) was used for evaluation. Rats were lifted vertically and their hindlimbs of injection side stepped on the top of electronic balance. At this time, the postural extensor thrust was shown as the value of balance. When limbs were completely paralytic, the digital reading was the weight of limbs, about 20 g. […]

For experiment [5], the system named is sciatic nerve of rats. Nature of the experiment: Third local anesthetic experiment of rats: hydrogels embedded near the sciatic nerve, mechanical withdrawal threshold (VFH). It is filed as in vivo. On the procedure: as §3, §4
(§8) 25 mmol/L transparent uniform hydrogels of products obtained in Examples 7-10 and 13-32 were prepared under sterile conditions, as the method of Example 45, and kept for use.
(§9) Above hydrogels, positive control lidocaine, and negative control normal saline were respectively administrated to 35 groups of test rats fully adapted to experiment environment, with five rats for each group. The administration dosage is: the concentration of lidocaine group being 2% aqueous solution (84 mmol/L). The injection volume of each rat receiving drugs or the control was […], and the control was injected to near the sciatic nerve of rats by guidance of nerve locator; by surgery, the gels were embedded near the sciatic nerve of experimental rats after general anesthesia using sevoflurane. Specific procedures and the evaluation criterion for local anesthetic effect were same as mentioned in Example 60.

In experiment [6] the test system is sciatic nerve of rats. Nature of the experiment: Third local anesthetic experiment of rats: hydrogels embedded near the sciatic nerve, motor function (PET). The experiment is classed as in vivo.
Description: as §5, §6, §8, §9

For a further experiment, the system named is Na+ channels. The settings on record: with the addition of surface-active agent or with the help of forming micelles; cited from earlier work.
The mark [7] stands for this setting: rats, 25 mmol/L hydrogel, 0.2 g embedded by surgery near sciatic nerve, lidocaine 2% (84 mmol/L) injected.

On to `CCN(CC)CC(=O)Nc1c(C)cccc1C` [2% lidocaine hydrochloride, lidocaine hydrochloride, reference compound], for which the “The hold time of sensation blocking” value in the experiment with sciatic nerve of rats [1] (rats, 0.2 ml injected close to sciatic nerve, tested drug 5 mmol/L solution (micelle), lidocaine 2% (84 mmol/L), threshold above 60 g) was 2 h; in the experiment on sciatic nerve of rats [3], 2 h; with sciatic nerve of rats [5] (setting [7]) it was 2 h. Besides, the “Effective local anesthetic time” value with sciatic nerve of rats [1] (rats, 0.2 ml injected close to sciatic nerve, tested drug 5 mmol/L solution (micelle), lidocaine 2% aqueous solution (84 mmol/L)) amounted to 1 min; with sciatic nerve of rats [3] it was 1 min; in the experiment on sciatic nerve of rats [5] (setting [7]) it was 1 min. Besides, the “The hold time of motor blocking” value in the experiment on sciatic nerve of rats [2] (rats, 0.2 ml injected close to sciatic nerve, tested drug 5 mmol/L solution (micelle), lidocaine 2% (84 mmol/L)) was determined as 2 h; in the experiment with sciatic nerve of rats [4] it was 2 h; with sciatic nerve of rats [6] (setting [7]), 2 h.

In the case of `CCCCCCCCCCCOC(=O)OCC[N+](CC)(CC)CC(=O)Nc1c(C)cccc1C` [Example25product], the “Effective local anesthetic time” value in the experiment with sciatic nerve of rats [1] (rat, in vivo) was determined as 20 min; in the experiment on sciatic nerve of rats [5] (rat, in vivo) it was 82 min. The “The hold time of sensation blocking” value in the experiment on sciatic nerve of rats [1] (rat, in vivo) stood at 81 h; in the experiment with sciatic nerve of rats [5] (rat, in vivo), 83 h. Also, the “The hold time of motor blocking” value in the experiment with sciatic nerve of rats [2] (rat, in vivo) worked out at 80 h; with sciatic nerve of rats [6] (rat, in vivo), 79 h.

Turning to `CCCCCCCCCCCCOC(=O)OCC[N+](CC)(CC)CC(=O)Nc1c(C)cccc1C` [Example26product], the “Effective local anesthetic time” value in the experiment on sciatic nerve of rats [1] (rat, in vivo) is listed as 20 min; with sciatic nerve of rats [5] (rat, in vivo), 88 min. For the same compound, the “The hold time of sensation blocking” value with sciatic nerve of rats [1] (rat, in vivo) was 80 h; with sciatic nerve of rats [5] (rat, in vivo), 81 h. Also, the “The hold time of motor blocking” value was found to be 80 h in the experiment on sciatic nerve of rats [2] (rat, in vivo) and 77 h with sciatic nerve of rats [6] (rat, in vivo).

Regarding `CCCCCCCCCCCCOC(=O)OCC[N+](CC)(CC)CC(=O)Nc1c(C)cccc1C` [Example27product], the “Effective local anesthetic time” value in the experiment with sciatic nerve of rats [1] (rat, in vivo) was 20 min; with sciatic nerve of rats [5] (rat, in vivo), 90 min. Also, the “The hold time of sensation blocking” value with sciatic nerve of rats [1] (rat, in vivo) is given as 78 h; with sciatic nerve of rats [5] (rat, in vivo) it was 83 h. For the same compound, the “The hold time of motor blocking” value with sciatic nerve of rats [2] (rat, in vivo) is given as 80 h; with sciatic nerve of rats [6] (rat, in vivo), 76 h.

Turning to `CCCCCCCCCCCCCCOC(=O)OCC[N+](CC)(CC)CC(=O)Nc1c(C)cccc1C` [Example28product], the “Effective local anesthetic time” value in the experiment with sciatic nerve of rats [1] (rat, in vivo) was 20 min; in the experiment on sciatic nerve of rats [5] (rat, in vivo), 88 min. Moreover, the “The hold time of sensation blocking” value was found to be 76 h in the experiment with sciatic nerve of rats [1] (rat, in vivo) and 83 h in the experiment with sciatic nerve of rats [5] (rat, in vivo). The “The hold time of motor blocking” value in the experiment with sciatic nerve of rats [2] (rat, in vivo) stood at 79 h; in the experiment on sciatic nerve of rats [6] (rat, in vivo), 79 h.

Regarding `CCCCCCCCCCCCCCCCOC(=O)OCC[N+](CC)(CC)CC(=O)Nc1c(C)cccc1C` [Example29product], the “Effective local anesthetic time” value was determined as 20 min in the experiment on sciatic nerve of rats [1] (rat, in vivo) and 92 min in the experiment with sciatic nerve of rats [5] (rat, in vivo). Also, the “The hold time of sensation blocking” value was found to be 78 h in the experiment on sciatic nerve of rats [1] (rat, in vivo) and 86 h with sciatic nerve of rats [5] (rat, in vivo). Further, the “The hold time of motor blocking” value is on record as 80 h in the experiment on sciatic nerve of rats [2] (rat, in vivo) and 84 h in the experiment on sciatic nerve of rats [6] (rat, in vivo).

On to `CCCCCCCCCCCCCCCCOC(=O)OCC[N+](CC)(CC)CC(=O)Nc1c(C)cccc1C` [Example30product], for which the “Effective local anesthetic time” value worked out at 19 min in the experiment on sciatic nerve of rats [1] (rat, in vivo) and 95 min in the experiment with sciatic nerve of rats [5] (rat, in vivo). The “The hold time of sensation blocking” value stood at 74 h in the experiment on sciatic nerve of rats [1] (rat, in vivo) and 87 h in the experiment on sciatic nerve of rats [5] (rat, in vivo). Also, the “The hold time of motor blocking” value in the experiment with sciatic nerve of rats [2] (rat, in vivo) amounted to 78 h; in the experiment with sciatic nerve of rats [6] (rat, in vivo), 86 h.

For `CCCCCCCCCCCCCCCCCCOC(=O)OCC[N+](CC)(CC)CC(=O)Nc1c(C)cccc1C` [Example31product], the “Effective local anesthetic time” value with sciatic nerve of rats [1] (rat, in vivo) worked out at 20 min; in the experiment on sciatic nerve of rats [5] (rat, in vivo) it was 92 min. In addition, the “The hold time of sensation blocking” value with sciatic nerve of rats [1] (rat, in vivo) was determined as 78 h; in the experiment on sciatic nerve of rats [5] (rat, in vivo), 83 h. Besides, the “The hold time of motor blocking” value was found to be 80 h in the experiment on sciatic nerve of rats [2] (rat, in vivo) and 78 h with sciatic nerve of rats [6] (rat, in vivo).

In the case of `CC[N+](CC)(CC)CC(=O)Nc1c(C)cccc1C.[Br-]` [QX314], the “local anesthetic actions lasting” value in the experiment on Na+ channels was “more than 8 hours”.
